Experimental data published in ChEMBL document CHEMBL5053549, “Discovery of Potent and Novel Dual PARP/BRD4 Inhibitors for Efficient Treatment of Pancreatic Cancer” (J Med Chem, 2021).
The source made the active and inactive calls. The rule behind the calls is not given here.

Tests used:
Mus musculus = experiment: Effect on cell cycle progression in human SW1990 cells xenografted in BALB/c mouse assessed as reduction in CDK6 expression at 45 mg/kg, ip after 4 days by Western blot analysis; assay type: functional, organism-based; details: time 4.0 day
SW1990 [1] = experiment: Inhibition of homologous recombinant repair in human SW1990 cells assessed as increase in […] expression at 1 to 2 uM after 4 days by Q-PCR analysis; assay type: functional, cell-based; details: dose 1-2 µM, time 4.0 day
SW1990 [2] = experiment: Inhibition of homologous recombinant repair in human SW1990 cells assessed as reduction in Olaparib-induced Rad51 expression at 1 uM after 4 days in presence of Olaparib by Q-PCR analysis; assay type: functional, cell-based; details: time 4.0 day

SMILES | Activity (Mus musculus) | inhibition (SW1990 [1]) | inhibition (SW1990 [2])
CC[C@@H]1C(=O)N(C)c2cnc(N(C)c3ccc(-c4nc5c(C(N)=O)cccc5[nH]4)cc3OC)nc2N1C1CCCC1 | Active | Active | –
Cc1sc2c(c1C)C(c1ccc(Cl)cc1)=N[C@@H](CC(=O)OC(C)(C)C)c1nnc(C)n1-2 | – | – | Active
